Consider four compounds from US20240285580A1, “COMPOSITIONS AND METHODS FOR EXTENDED RELEASE CROMAKALIM THERAPY” (Qlaris Bio, Inc., priority 2021, published 2024).

Structures can show the parent of a compound that is named as a salt.

One data set deals with KATP channels. To be noted: membrane patches from rabbit mesenteric arterial smooth muscle cells, in the presence of ATP; cited from earlier work.
The conditions of data set [1]: cited from earlier work.
For data set [2] the following is noted: in vivo; cited from earlier work.
Data set [3] concerns isolated rat mesenteric lymph vessels. To be noted: cited from earlier work; for rhythmic contractions of isolated rat mesenteric lymph vessels: exposure to KATP channel openers.
The conditions of data set [4]: trials terminated; most likely due to poor bioavailability; cited from earlier work.
For a further data set, the system named is CD31 and VE-Cadherin. Nature of the data set: Expression of biomarker proteins for hyperemia and vessel integrity. The note with it: compared to Y-27632, a Rho kinase inhibitor. From the text: Furthermore, the effect of levcromakalim on selected biomarkers for hyperemia and perturbations to vessel integrity has been established.

Take `CC1(C)Oc2ccc(C#N)cc2C(N2CCCC2=O)C1O` (stereo not shown) [Cromakalim, cromakalim]: the “increase of open-state probability (Popen) of single KATP channels” value in the data set with KATP channels is reported as “more than 9 fold”. Besides, the solubility in water entry in data set [1] is “substantially insoluble in water”. In addition, the “effect on blood pressure” value in data set [2] is recorded as “lower blood pressure”. For the same compound, in data set [3], the “rhythmic contractions of isolated rat mesenteric lymph vessels” value (from here on “rhythmic contractions”) is reported as “progressively impaired”. Further, the “contractions of the vessels at increasing concentrations” value in data set [3] (increasing concentrations, flow impaired by attenuating frequency and amplitude) is “ultimately abolished the contractions”. In data set [4], the “outcome of human clinical trials” value is “lack of activity”.

`CC1(C)Oc2ccc(C#N)cc2[C@@H](N2CCCC2=O)[C@@H]1O` [Levcromakalim, levcromakalim]: in the data set with CD31 and VE-Cadherin, the “impact on expression of measured proteins indicative of tissue and vessel integrity” value is “no significant impact”.

Regarding `CC1=NS(=O)(=O)c2cc(Cl)ccc2N1` [diazoxide], in data set [2], the “effect on blood pressure” value is reported as “lower blood pressure”. Further, in data set [3], the “rhythmic contractions” value was “progressively impaired”.

Regarding `Nc1cc(N2CCCCC2)nc(N)[n+]1OS(=O)(=O)[O-]` [minoxidil sulfate], the “rhythmic contractions” value in data set [3] is “progressively impaired”.
